{"source": "the supplement of paper PMC10733146", "test_in_all_cases": "viability relative to DMSO control (fraction); higher = less drug effect (more viable cells)", "conditions_in_all_cases": "48 h", "key": {"[1]": {"tested_on": "primary AML patient cells (S085)", "summary_of_the_method": "(§1)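 The cells were primary mononuclear tumour cells, either fresh or cryopreserved, isolated by Ficoll from blood or bone marrow or derived from processed lymph node. Each well of a 384-well plate received 4 × 10^4 cells onto compounds pre-plated at five concentrations, with one well per concentration. The medium was RPMI-1640 with penicillin/streptomycin, L-glutamine and human serum, and plates stood at 37 °C and 5% CO2 for 48 h. Viability is reported as CellTiter-Glo luminescence relative to the median of 16 inner DMSO wells.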"}, "[2]": {"tested_on": "primary FL patient cells (S087)", "summary_of_the_method": "as §1"}, "[3]": {"tested_on": "primary MCL patient cells (S053)", "summary_of_the_method": "as §1"}, "[4]": {"tested_on": "primary AML patient cells (S019)", "summary_of_the_method": "as §1"}, "[5]": {"tested_on": "primary B-PLL patient cells (S016)", "summary_of_the_method": "as §1"}, "[6]": {"tested_on": "primary T-PLL patient cells (S008)", "summary_of_the_method": "as §1"}, "[7]": {"tested_on": "primary AML patient cells (S009)", "summary_of_the_method": "as §1"}, "[8]": {"tested_on": "primary FL patient cells (S022)", "summary_of_the_method": "as §1"}, "[9]": {"tested_on": "primary AML patient cells (S091)", "summary_of_the_method": "as §1"}, "[10]": {"tested_on": "primary AML patient cells (S011)", "summary_of_the_method": "as §1"}, "[11]": {"tested_on": "primary AML patient cells (S025)", "summary_of_the_method": "as §1"}, "[12]": {"tested_on": "primary AML patient cells (S012)", "summary_of_the_method": "as §1"}, "[13]": {"tested_on": "primary MCL patient cells (S041)", "summary_of_the_method": "as §1"}, "[14]": {"tested_on": "primary AML patient cells (S017)", "summary_of_the_method": "as §1"}, "[15]": {"tested_on": "primary BL patient cells (S005)", "summary_of_the_method": "as §1"}, "[16]": {"tested_on": "primary AML patient cells (S021)", "summary_of_the_method": "as §1"}, "[17]": {"tested_on": "primary AML patient cells (S037)", "summary_of_the_method": "as §1"}, "[18]": {"tested_on": "primary AML patient cells (S081)", "summary_of_the_method": "as §1"}, "[19]": {"tested_on": "primary AML patient cells (S002)", "summary_of_the_method": "as §1"}, "[20]": {"tested_on": "primary MCL patient cells (S068)", "summary_of_the_method": "as §1"}}, "data": [{"smiles": "CS(=O)(=O)c1ccc(C(=O)Nc2ccc(Cl)c(-c3ccccn3)c2)c(Cl)c1", "note": "[Vismodegib]", "values": [{"measurement": "viability", "setting": "[1]; 0.024 µM", "result": 0.89}, {"measurement": "viability", "setting": "[1]; 0.12 µM", "result": 0.925}, {"measurement": "viability", "setting": "[1]; 0.6 µM", "result": 0.928}, {"measurement": "viability", "setting": "[1]; 3 µM", "result": 0.952}, {"measurement": "viability", "setting": "[1]; 15 µM", "result": 1.05}, {"measurement": "viability", "setting": "[2]; 0.024 µM", "result": 0.918}, {"measurement": "viability", "setting": "[2]; 0.12 µM", "result": 0.898}, {"measurement": "viability", "setting": "[2]; 0.6 µM", "result": 0.914}, {"measurement": "viability", "setting": "[2]; 3 µM", "result": 0.92}, {"measurement": "viability", "setting": "[2]; 15 µM", "result": 0.929}, {"measurement": "viability", "setting": "[3]; 0.024 µM", "result": 0.915}, {"measurement": "viability", "setting": "[3]; 0.12 µM", "result": 0.932}, {"measurement": "viability", "setting": "[3]; 0.6 µM", "result": 0.893}, {"measurement": "viability", "setting": "[3]; 3 µM", "result": 0.9}, {"measurement": "viability", "setting": "[3]; 15 µM", "result": 1.05}, {"measurement": "viability", "setting": "[4]; 0.024 µM", "result": 0.903}, {"measurement": "viability", "setting": "[4]; 0.12 µM", "result": 0.997}, {"measurement": "viability", "setting": "[4]; 0.6 µM", "result": 0.855}, {"measurement": "viability", "setting": "[4]; 3 µM", "result": 0.873}, {"measurement": "viability", "setting": "[4]; 15 µM", "result": 0.989}, {"measurement": "viability", "setting": "[5]; 0.024 µM", "result": 0.862}, {"measurement": "viability", "setting": "[5]; 0.12 µM", "result": 0.917}, {"measurement": "viability", "setting": "[5]; 0.6 µM", "result": 0.921}, {"measurement": "viability", "setting": "[5]; 3 µM", "result": 0.857}, {"measurement": "viability", "setting": "[5]; 15 µM", "result": 0.92}, {"measurement": "viability", "setting": "[6]; 0.024 µM", "result": 0.941}, {"measurement": "viability", "setting": "[6]; 0.12 µM", "result": 0.932}, {"measurement": "viability", "setting": "[6]; 0.6 µM", "result": 0.983}, {"measurement": "viability", "setting": "[6]; 3 µM", "result": 0.938}, {"measurement": "viability", "setting": "[6]; 15 µM", "result": 0.926}, {"measurement": "viability", "setting": "[7]; 0.024 µM", "result": 0.913}, {"measurement": "viability", "setting": "[7]; 0.12 µM", "result": 0.918}, {"measurement": "viability", "setting": "[7]; 0.6 µM", "result": 0.944}, {"measurement": "viability", "setting": "[7]; 3 µM", "result": 0.942}, {"measurement": "viability", "setting": "[7]; 15 µM", "result": 0.939}, {"measurement": "viability", "setting": "[8]; 0.024 µM", "result": 0.868}, {"measurement": "viability", "setting": "[8]; 0.12 µM", "result": 0.958}, {"measurement": "viability", "setting": "[8]; 0.6 µM", "result": 0.886}, {"measurement": "viability", "setting": "[8]; 3 µM", "result": 0.911}, {"measurement": "viability", "setting": "[8]; 15 µM", "result": 0.971}, {"measurement": "viability", "setting": "[9]; 0.024 µM", "result": 0.973}, {"measurement": "viability", "setting": "[9]; 0.12 µM", "result": 0.901}, {"measurement": "viability", "setting": "[9]; 0.6 µM", "result": 0.997}, {"measurement": "viability", "setting": "[9]; 3 µM", "result": 0.996}, {"measurement": "viability", "setting": "[9]; 15 µM", "result": 0.893}, {"measurement": "viability", "setting": "[10]; 0.024 µM", "result": 0.771}, {"measurement": "viability", "setting": "[10]; 0.12 µM", "result": 0.871}, {"measurement": "viability", "setting": "[10]; 0.6 µM", "result": 1.11}, {"measurement": "viability", "setting": "[10]; 3 µM", "result": 0.914}, {"measurement": "viability", "setting": "[10]; 15 µM", "result": 0.92}, {"measurement": "viability", "setting": "[11]; 0.024 µM", "result": 0.963}, {"measurement": "viability", "setting": "[11]; 0.12 µM", "result": 0.984}, {"measurement": "viability", "setting": "[11]; 0.6 µM", "result": 0.955}, {"measurement": "viability", "setting": "[11]; 3 µM", "result": 0.89}, {"measurement": "viability", "setting": "[11]; 15 µM", "result": 0.902}, {"measurement": "viability", "setting": "[12]; 0.024 µM", "result": 0.993}, {"measurement": "viability", "setting": "[12]; 0.12 µM", "result": 1}, {"measurement": "viability", "setting": "[12]; 0.6 µM", "result": 0.995}, {"measurement": "viability", "setting": "[12]; 3 µM", "result": 0.936}, {"measurement": "viability", "setting": "[12]; 15 µM", "result": 1}, {"measurement": "viability", "setting": "[13]; 0.024 µM", "result": 0.934}, {"measurement": "viability", "setting": "[13]; 0.12 µM", "result": 0.973}, {"measurement": "viability", "setting": "[13]; 0.6 µM", "result": 0.935}, {"measurement": "viability", "setting": "[13]; 3 µM", "result": 0.969}, {"measurement": "viability", "setting": "[13]; 15 µM", "result": 0.984}, {"measurement": "viability", "setting": "[14]; 0.024 µM", "result": 0.901}, {"measurement": "viability", "setting": "[14]; 0.12 µM", "result": 0.922}, {"measurement": "viability", "setting": "[14]; 0.6 µM", "result": 0.907}, {"measurement": "viability", "setting": "[14]; 3 µM", "result": 0.927}, {"measurement": "viability", "setting": "[14]; 15 µM", "result": 0.955}, {"measurement": "viability", "setting": "[15]; 0.024 µM", "result": 1.12}, {"measurement": "viability", "setting": "[15]; 0.12 µM", "result": 0.893}, {"measurement": "viability", "setting": "[15]; 0.6 µM", "result": 1.12}, {"measurement": "viability", "setting": "[15]; 3 µM", "result": 1.14}, {"measurement": "viability", "setting": "[15]; 15 µM", "result": 0.824}, {"measurement": "viability", "setting": "[16]; 0.024 µM", "result": 0.893}, {"measurement": "viability", "setting": "[16]; 0.12 µM", "result": 0.888}, {"measurement": "viability", "setting": "[16]; 0.6 µM", "result": 0.886}, {"measurement": "viability", "setting": "[16]; 3 µM", "result": 0.858}, {"measurement": "viability", "setting": "[16]; 15 µM", "result": 0.808}, {"measurement": "viability", "setting": "[17]; 0.024 µM", "result": 0.927}, {"measurement": "viability", "setting": "[17]; 0.12 µM", "result": 0.979}, {"measurement": "viability", "setting": "[17]; 0.6 µM", "result": 0.91}, {"measurement": "viability", "setting": "[17]; 3 µM", "result": 0.958}, {"measurement": "viability", "setting": "[17]; 15 µM", "result": 1.02}, {"measurement": "viability", "setting": "[18]; 0.024 µM", "result": 0.926}, {"measurement": "viability", "setting": "[18]; 0.12 µM", "result": 0.946}, {"measurement": "viability", "setting": "[18]; 0.6 µM", "result": 0.915}, {"measurement": "viability", "setting": "[18]; 3 µM", "result": 0.923}, {"measurement": "viability", "setting": "[18]; 15 µM", "result": 1}, {"measurement": "viability", "setting": "[19]; 0.024 µM", "result": 0.854}, {"measurement": "viability", "setting": "[19]; 0.12 µM", "result": 0.923}, {"measurement": "viability", "setting": "[19]; 0.6 µM", "result": 0.862}, {"measurement": "viability", "setting": "[19]; 3 µM", "result": 0.957}, {"measurement": "viability", "setting": "[19]; 15 µM", "result": 0.87}, {"measurement": "viability", "setting": "[20]; 0.024 µM", "result": 0.891}, {"measurement": "viability", "setting": "[20]; 0.12 µM", "result": 0.929}, {"measurement": "viability", "setting": "[20]; 0.6 µM", "result": 0.949}, {"measurement": "viability", "setting": "[20]; 3 µM", "result": 0.992}, {"measurement": "viability", "setting": "[20]; 15 µM", "result": 1.07}]}]}
